Results taken from patent US20210379046A1, “Methods of Treating Diseases Using Kinase Modulators” (Memorial Sloan Kettering Cancer Center, priority 2018, published 2021).
“Also recorded” adds a separate entry of the source.

Assays:
TT cells = test: Flow cytometry of cell surface HLA on TT cells; assay type: cell-based, human; details: 72 hrs
Protocol: (§1) If adherent cells, they were seeded one day before treatment.

LC-2/ad cells = test: Flow cytometry of cell surface HLA on LC-2/ad cells; assay type: cell-based, human; details: 72 hrs
Protocol: as §1

Karpas 299 cells = test: Flow cytometry of cell surface HLA and checkpoint ligands on Karpas 299 cells; assay type: cell-based, human; details: for cell surface HLA-A,B,C: Karpas 299, 72 hrs, increasing concentrations
Protocol: as §1

SUDHL-1 cells = test: Flow cytometry of cell surface HLA on SUDHL-1 cells; assay type: cell-based, human; details: SUDHL-1, 72 hrs, increasing concentrations
Protocol: as §1

pERK in Karpas 299 cells = test: Western blot of pERK in Karpas 299 cells; assay type: cell-based, human; details: Karpas 299, 3 hrs
Protocol: (§2) Cells were seeded in a 60 mm dish or 6 well plates. After the appropriate time point, cells were harvested and lysed and protein was quantified by a Lowry assay (Bio-Rad DC Protein Assay; #5000116). Protein levels were normalized and run on SDS PAGE gels (Bio-Rad). Protein was transferred to a nitrocellulose membrane using semi-dry transfer. Membrane was blocked and incubated with respective antibodies. When needed, secondary antibodies with HRP were incubated for 1 hr.
(§3) Cells were seeded in a 60 mm dish or 6 well plates. After the appropriate time point, cells were harvested, lysed in RIPA buffer (Thermo Instruments) and protein concentration was quantified by a Lowry assay (using the Bio-Rad DC Protein Assay; #5000116 on a Spectramax device from Molecular Devices). Protein loading levels were equalized per lane and separated on SDS gels (Bio-Rad). Protein was transferred to a nitrocellulose membrance using semi-dry transfer (BioRad). Membranes were blocked with Omniblock (American Bio) and incubated with respected antibodies. When needed, secondary antibodies with HRP were incubated for 1 hr.

pERK in SUDHL-1 cells = test: Western blot of pERK in SUDHL-1 cells; assay type: cell-based, human; details: SUDHL-1, 3 hrs
Protocol: as §2, §3

Karpas 299 tumors = test: Karpas 299 subcutaneous tumors in mice, tumor HLA and PD-L1 by flow cytometry; assay type: in vivo; details: for tumor PD-L1 levels in vivo / tumor cell surface HLA-A,B,C in vivo: Karpas 299 tumors, daily oral gavage
Protocol: Female NSG (NOD.Cg-Prkdc^scidIl2rg^tm1Wj1/SzJ) and NRG (NOD.Cg-Rag1^tm1MomIl2rg^tm1Wj1/SzJ) mice were purchased from the Jackson Laboratory or MSKCC breeding facility at 5-10 weeks old. For RET and ALK experiments, 2.5-6×10^6 tumor cells were subcutaneously injected into the flank of mice and when tumors were palpable, mice were treated daily with drug or vehicles through oral gavage. At day 7, tumors were harvested and flow cytometry was run to determine effect of inhibitors on HLA and PD-L1 on the tumor cells.
The highly immunodeficient NRG (NOD-Rag1null IL2rgnull) mice were subcutaneously injected with 2.5×10^6 luciferase tagged TPC1 cells in their right flank. […] Afterwards, cells were immediately harvested and stained with antibodies against HLA-A*02:01 and HLA-ABC.
All animal experiments were conducted in accordance with and the approval of the MSKCC IACUC (Institutional Animal Care and Use Committee) protocols. Female NSG (NOD. Cg-Prkdc^scidIl2rg^tm1Wj1/SzJ) and NRG (NOD.Cg-Rag1^tm1MomIl2rg^tm1Wj1/SzJ) mice were purchased from the Jackson Laboratory at 5-10 weeks old. For experiments in vivo with RET and ALK, 2.5-6×10^6 tumor cells in PBS were subcutaneously injected into the flank of mice. When tumors were palpable (2-3 mm), mice were treated daily with drugs or vehicles through oral gavage of drugs in 200 ul of water. At day 4 or 7, tumors were harvested and flow cytometry was conducted to determine the effect of inhibitors on HLA and PD-L1 on the tumor cells. […] TPC1 cells were transduced with luciferase and GFP on an SFG vector and this allowed gating of the tumor cells in flow cytometry.

Karpas299 cells = test: Luminex cytokine secretion, Karpas299 cells; assay type: cell-based, human; details: Karpas299, 100 nm alectinib
Protocol: (§4) Supernatant media were harvested after treatment and analyzed by the Luminex device (Luminex Corporation, Austin, Tex.) for relevant cytokine secretion. […] On the left side of each panel is data after 24 hours. On the right side of each panel is data after 48 hours. […] The data points shown in this figure are in pairs for each condition. The data point pairs for each time point are, from left to right: DMSO, Rux, Alec, IFNg, and IFNg+Rux.

SUP-M2 cells = test: PD-L1 levels in vitro on SUP-M2 cells
Protocol: 5×10^4 cells were seeded in a 12 well plate and treated with drug for 72 hrs. Adherent cells were seeded one day before treatment. At 72 hrs, cells were harvested, washed with PBS and incubated on ice with appropriate fluorophore conjugated antibodies diluted in FACS buffer for 1 hr. Gating strategy: Cells were then washed and incubated 30 min with a viability dye (propidium iodide at 1 ug/mL) and live cells only were analyzed by on a Guava flow cytometer with FlowJo software.

pERK in H2228 cells = test: Western blot of pERK in H2228 cells; assay type: cell-based, human; details: H2228, 100 nM
Protocol: as §2, §3

[1] = system: HLA-A, beta-2-microglobulin, TAP1, TAP2 in Karpas 299 and SUDHL-1 cells; test: Western blot and qPCR of HLA and antigen processing machinery in ALCL lines; assay type: cell-based, human; details: for HLA and antigen processing machinery transcript levels (qPCR): Karpas 299 and SUDHL-1, 48 hrs
Protocol: as §2, §3
Data were normalized to baseline expression of each analyzed gene separately.

[2] = system: Karpas 299 and SUDHL-1 cells; test: Sensitivity of ALCL cells to ALK inhibitors; assay type: cell-based, human
SKOV3 cells = test: Surface HLA on SKOV3 cells; assay type: cell-based, human
Protocol: as §1
Experiments in this Example were performed as described in Section 6.1.2.

[3] = system: JAK signaling (pSTAT1) in Karpas299 and TPC1 cells; test: IFN-γ stimulation and ruxolitinib control in Karpas299 and TPC1 cells; assay type: cell-based, human
Protocol: Cells were harvested and stained with anti-HLA-A02 antibody (BB7-FITC) for flow cytometry. […] (B) Karpas299 and TPC1 cells were treated with DMSO, IFN-γ, or IFN-γ and RUX for 72 hours.
as §4

Molecule | surface HLA-E levels (Karpas 299 cells; Karpas 299) | cell surface HLA-A,B,C (Karpas 299 cells) | cell surface HLA-A,B,C (SUDHL-1 cells) | pERK levels (pERK in Karpas 299 cells) | pERK levels (pERK in SUDHL-1 cells) | tumor PD-L1 levels in vivo (Karpas 299 tumors) | tumor cell surface HLA-A,B,C in vivo (Karpas 299 tumors) | pERK levels (pERK in H2228 cells) | HLA and antigen processing machinery transcript levels (qPCR) [1] | further results
COc1cc2ncnc(Oc3cccc(NC(=O)Nc4cc(C(C)(C)C(F)(F)F)on4)c3)c2cc1OC [CEP-32496] | – | – | – | – | – | – | – | – | – | surface HLA (TT cells): minimal effects on HLA upregulation; also recorded: Small changes in cell surface HLA; surface HLA (LC-2/ad cells): minimal effects on HLA upregulation; also recorded: Small changes in cell surface HLA
CCc1cc2c(cc1N1CCC(N3CCOCC3)CC1)C(C)(C)c1[nH]c3cc(C#N)ccc3c1C2=O [alectinib] | did not change | upregulates cell surface HLA | upregulates cell surface HLA | shut down pERK expression | shut down pERK expression | PD-L1 decreased with increasing doses | increased modestly in a dose-dependent manner | – | – | PD-L1 levels in vitro (Karpas 299 cells; Karpas 299): dramatic decreases in PD-L1 were seen in vitro; HLA-A02 (BB7-FITC) surface level (Karpas 299 cells; Karpas299, alectinib 100 nM, 72 hours): led to upregulation of HLA; drop of PD-L1 (Karpas 299 tumors; Karpas 299 tumors in NSG mice): approximately 75%; IFNα, IFNγ, IL4 secretion (Karpas299 cells): had no effect on IFNα, IFNγ, IL4; IL6 and TNFα secretion (Karpas299 cells): reduced IL6 and TNFα secretion; PD-L1 levels in vitro (SUP-M2 cells): dramatic decreases in PD-L1 were seen in vitro
Cc1cc(Nc2ncc(Cl)c(Nc3ccccc3S(=O)(=O)C(C)C)n2)c(OC(C)C)cc1C1CCNCC1 [ceritinib] | – | cell surface HLA increased in both cell lines in a dose-dependent manner | cell surface HLA increased in both cell lines in a dose-dependent manner | shut down pERK levels | shut down pERK levels | – | – | slightly decreased pERK levels | Increase in RNA levels of HLA and antigen processing machinery | pERK levels (pERK in H2228 cells; listed as Ceritinib): minimal changes in pERK levels; also recorded: decreased pERK levels very slightly; HLA-A and beta-2-microglobulin protein levels (western blot) ([1]; Karpas 299 and SUDHL-1, 72 hrs): show increase in HLA-A and beta-2-microglobulin; sensitivity of cells to ceritinib compared with crizotinib [2]: more sensitive to ceritinib than crizotinib, and died at lower concentrations
C[C@@H](Oc1cc(-c2cnn(C3CCNCC3)c2)cnc1N)c1c(Cl)ccc(F)c1Cl [crizotinib] | did not change | increased levels of surface HLA-A,B,C; also recorded: increased levels of surface HLA class I complexes; also recorded: increases in cell surface HLA | increased surface HLA in a dose-related manner; also recorded: increases in cell surface HLA | dose-related reduction of pERK at 3 hours; also recorded: dose-related, reduction of pERK at 3 hours | inhibited pERK expression | PD-L1 levels decreased with increasing doses; also recorded: PD-L1 levels decreased in vivo | increased slightly in a dose-response manner, though not all mice responded; also recorded: increased modestly in a dose-dependent manner | did not change pERK levels | showed increases in HLA and antigen processing machinery transcript levels | HLA levels increase compared to control cells treated with DMSO (Karpas 299 cells; Karpas 299, 1 uM, 72 hour incubation): 4 fold; pERK levels (pERK in H2228 cells; listed as Crizotinib): does not decrease pERK levels
CS(=O)(=O)CCNCc1ccc(-c2ccc3ncnc(Nc4ccc(OCc5cccc(F)c5)c(Cl)c4)c3c2)o1 [lapatinib] | – | – | – | – | – | – | – | – | – | HLA upregulation (SKOV3 cells): upregulated HLA
IFNγ: interferon gamma used as positive control | – | – | – | – | – | – | – | – | – | phosphorylated STAT1 (pSTAT1) ([3]; Karpas299 and TPC1, IFN-γ or IFN-γ and RUX, 72 hours): upregulated in both cell lines; IL4 and IL6 secretion ([3]; Karpas299 and TPC1, IFNγ 100 ng/ml, ruxolitinib 1000 nm): increased both IL4 and IL6
